Reference: US20200354426A1 (MEDIMMUNE LIMITED, priority 2016, published 2020)
Values joined by “and” are separate entries in the source; they are usually repeats but may differ in a detail not shown here. Equal values may be shown once. Numbered stars: 1 amine (or outer) side, 2 acyl side, 3 side chain; on linkers, the order of the positions; unused ones are H or OH. Side chains are listed from the residue outwards. Peptide text beside a SMILES is read from it. * marks the point of attachment. γGlu = O=C(O)[C@H](CCC(=O)[*:2])N[*:1]; Palmitoyl = CCCCCCCCCCCCCCCC(=O)*; Ahx = NCCCCCC(=O)O

Experiments:
Assay in all cases: cAMP activity assay in assay medium (assay 1)
Assay type in all cases: cell-based
[1] = molecular target: Human GLP1R (Homo sapiens, UniProt P43220); parameters: expressed in transfected cells; conditions: assay medium; Table 4; read-out: hGLP1R EC50
Chain of Human GLP1R (P43220 24-463): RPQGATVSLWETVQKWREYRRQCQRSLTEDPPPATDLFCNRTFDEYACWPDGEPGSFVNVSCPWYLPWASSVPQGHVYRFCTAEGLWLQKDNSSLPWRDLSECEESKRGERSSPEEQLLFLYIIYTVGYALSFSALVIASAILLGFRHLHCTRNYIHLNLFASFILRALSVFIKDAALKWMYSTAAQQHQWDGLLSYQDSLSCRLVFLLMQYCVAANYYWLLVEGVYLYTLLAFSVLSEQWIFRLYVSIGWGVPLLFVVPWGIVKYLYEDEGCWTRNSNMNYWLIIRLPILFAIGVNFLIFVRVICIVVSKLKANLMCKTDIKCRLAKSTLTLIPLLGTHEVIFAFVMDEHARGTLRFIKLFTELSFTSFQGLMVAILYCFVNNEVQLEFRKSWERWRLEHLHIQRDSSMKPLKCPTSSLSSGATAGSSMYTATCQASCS
Source text: (§1) Biological Activity of Peptides in Cell-Based cAMP Activity Assay (Assay 1):
(§2) All sample dilutions were made in duplicate.

[2] = molecular target: T1, Human GIPr (Homo sapiens, UniProt P48546); conditions: assay medium; Table 4; read-out: hGIPR EC50
T1 construct: expressed in transfected cells
T1 sequence (P48546 22-466): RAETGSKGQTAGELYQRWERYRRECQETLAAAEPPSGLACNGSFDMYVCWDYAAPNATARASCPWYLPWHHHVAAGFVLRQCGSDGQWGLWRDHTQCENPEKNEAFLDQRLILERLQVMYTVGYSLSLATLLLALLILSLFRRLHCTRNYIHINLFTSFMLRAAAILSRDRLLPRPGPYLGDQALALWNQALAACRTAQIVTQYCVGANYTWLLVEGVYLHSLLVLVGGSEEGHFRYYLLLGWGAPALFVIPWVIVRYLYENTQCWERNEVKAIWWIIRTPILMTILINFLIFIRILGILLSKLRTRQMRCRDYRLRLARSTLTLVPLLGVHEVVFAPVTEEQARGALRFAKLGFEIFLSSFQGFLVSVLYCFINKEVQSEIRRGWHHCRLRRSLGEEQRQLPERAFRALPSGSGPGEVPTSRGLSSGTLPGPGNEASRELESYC
Source text: as §1, §2

[3] = molecular target: T2, Human GlucR (Homo sapiens, UniProt P47871); conditions: assay medium; Table 4; read-out: hGlucR EC50
T2 construct: expressed in transfected cells
T2 sequence (P47871 26-477): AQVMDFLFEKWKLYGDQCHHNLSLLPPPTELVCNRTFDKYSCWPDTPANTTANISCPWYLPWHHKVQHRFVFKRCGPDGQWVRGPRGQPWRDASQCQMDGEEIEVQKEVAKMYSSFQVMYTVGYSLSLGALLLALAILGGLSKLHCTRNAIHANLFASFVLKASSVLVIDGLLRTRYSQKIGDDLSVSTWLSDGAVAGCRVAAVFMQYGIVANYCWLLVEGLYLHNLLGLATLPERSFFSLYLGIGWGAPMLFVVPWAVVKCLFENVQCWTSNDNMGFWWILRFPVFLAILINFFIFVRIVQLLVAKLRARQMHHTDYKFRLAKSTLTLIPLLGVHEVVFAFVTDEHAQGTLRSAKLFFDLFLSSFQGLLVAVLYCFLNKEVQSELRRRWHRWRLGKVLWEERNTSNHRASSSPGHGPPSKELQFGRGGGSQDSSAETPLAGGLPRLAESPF
Source text: as §1, §2

In the case of `CCCCCCCCCCCCCCCC(=O)N[C@@H](CCC(=O)NCCCC[C@H](NC(=O)[C@H](CO)NC(=O)[C@H](CC(=O)O)NC(=O)[C@H](CC(C)C)NC(=O)[C@H](Cc1ccc(O)cc1)NC(=O)[C@H](CCCCN)NC(=O)[C@H](CO)NC(=O)[C@H](Cc1ccc(O)cc1)NC(=O)[C@H](CC(=O)O)NC(=O)[C@H](CO)NC(=O)[C@@H](NC(=O)[C@H](Cc1ccccc1)NC(=O)[C@@H](NC(=O)CNC(=O)[C@H](CCC(N)=O)NC(=O)C(C)(C)NC(=O)[C@@H](N)Cc1c[nH]cn1)[C@@H](C)O)[C@@H](C)O)C(=O)N[C@@H](CCCNC(=N)N)C(=O)N[C@@H](C)C(=O)N[C@@H](CCC(N)=O)C(=O)N[C@@H](CC(=O)O)C(=O)N[C@@H](Cc1ccccc1)C(=O)N[C@H](C(=O)N[C@@H](CCC(N)=O)C(=O)N[C@@H](Cc1c[nH]c2ccccc12)C(=O)N[C@@H](CC(C)C)C(=O)N[C@H](C(=O)N[C@@H](C)C(=O)NCC(=O)NCC(N)=O)C(C)C)C(C)C)C(=O)O` [g384], the EC50 [1] is reported as 0.0272 nM, the EC50 [2] is reported as 17 nM and the EC50 [3] is reported as 0.0429 nM.
With `CCCCCCCCCCCCCCCC(=O)N[C@@H](CCC(=O)NCCCC[C@H](NC(=O)[C@H](CO)NC(=O)[C@H](CC(=O)O)NC(=O)[C@H](CC(C)C)NC(=O)[C@H](Cc1ccc(O)cc1)NC(=O)[C@H](CCCCN)NC(=O)[C@H](CO)NC(=O)[C@H](Cc1ccc(O)cc1)NC(=O)[C@H](CC(=O)O)NC(=O)[C@H](CO)NC(=O)[C@@H](NC(=O)[C@H](Cc1ccccc1)NC(=O)[C@@H](NC(=O)CNC(=O)[C@H](CCC(N)=O)NC(=O)CNC(=O)[C@@H](N)Cc1c[nH]cn1)[C@@H](C)O)[C@@H](C)O)C(=O)N[C@@H](CCCNC(=N)N)C(=O)N[C@@H](C)C(=O)N[C@@H](CCC(N)=O)C(=O)N[C@@H](CC(=O)O)C(=O)N[C@@H](Cc1ccccc1)C(=O)N[C@H](C(=O)N[C@@H](CCC(N)=O)C(=O)N[C@@H](Cc1c[nH]c2ccccc12)C(=O)N[C@@H](CC(C)C)C(=O)N[C@@H](CCC(=O)O)C(=O)N[C@@H](C)C(=O)NCC(=O)NCC(N)=O)C(C)C)C(=O)O` [g512] the EC50 [1] was 0.098 nM, the EC50 [2] was 407 nM and the EC50 [3] was 0.0606 nM.
`CCCCCCCCCCCCCCCC(=O)N[C@@H](CCC(=O)NCCCC[C@H](NC(=O)[C@H](CO)NC(=O)[C@H](CC(=O)O)NC(=O)[C@H](CC(C)C)NC(=O)[C@H](Cc1ccc(O)cc1)NC(=O)[C@H](CCCCN)NC(=O)[C@H](CO)NC(=O)[C@H](Cc1ccc(O)cc1)NC(=O)[C@H](CC(=O)O)NC(=O)[C@H](CO)NC(=O)[C@@H](NC(=O)[C@H](Cc1ccccc1)NC(=O)[C@@H](NC(=O)CNC(=O)[C@H](CCC(=O)O)NC(=O)[C@H](CO)NC(=O)[C@@H](N)Cc1c[nH]cn1)[C@@H](C)O)[C@@H](C)O)C(=O)N[C@@H](CCCNC(=N)N)C(=O)N[C@@H](C)C(=O)N[C@@H](CCC(N)=O)C(=O)N[C@@H](CC(=O)O)C(=O)N[C@@H](Cc1ccccc1)C(=O)N[C@H](C(=O)N[C@@H](CCC(N)=O)C(=O)N[C@@H](Cc1c[nH]c2ccccc12)C(=O)N[C@@H](CC(C)C)C(=O)N[C@@H](CCC(=O)O)C(=O)N[C@@H](C)C(=O)NCC(=O)NCC(N)=O)C(C)C)C(=O)O` [g513] (H-HSEGTFTSDYSKYLDSK([γGlu-Palmitoyl])RAQDFVQWLEAGG-NH2; N-terminus assumed) was tested, and the EC50 [1] was 0.175 nM, the EC50 [2] was 298 nM and the EC50 [3] was 0.723 nM.
`CCCCCCCCCCCCCCCC(=O)N[C@@H](CCC(=O)NCCCC[C@H](NC(=O)[C@H](CO)NC(=O)[C@H](CC(=O)O)NC(=O)[C@H](CC(C)C)NC(=O)[C@H](Cc1ccc(O)cc1)NC(=O)[C@H](CCCCN)NC(=O)[C@H](CO)NC(=O)[C@H](Cc1ccc(O)cc1)NC(=O)[C@H](CC(=O)O)NC(=O)[C@H](CO)NC(=O)[C@@H](NC(=O)[C@H](Cc1ccccc1)NC(=O)[C@@H](NC(=O)CNC(=O)[C@H](CCC(N)=O)NC(=O)CNC(=O)[C@@H](N)Cc1c[nH]cn1)[C@@H](C)O)[C@@H](C)O)C(=O)N[C@@H](CCCNC(=N)N)C(=O)N[C@@H](C)C(=O)N[C@@H](CCC(N)=O)C(=O)N[C@@H](CC(=O)O)C(=O)N[C@@H](Cc1ccccc1)C(=O)N[C@H](C(=O)N[C@@H](CCC(N)=O)C(=O)N[C@@H](Cc1c[nH]c2ccccc12)C(=O)N[C@@H](CC(C)C)C(=O)N[C@@H](CCC(=O)O)C(=O)N[C@@H](CCCNC(=N)N)C(=O)NCC(=O)NCC(N)=O)C(C)C)C(=O)O` [g588] gave an EC50 [1] of 0.11 nM, an EC50 [2] of 98 nM and an EC50 [3] of 0.0723 nM.
For `CCCCCCCCCCCCCCCC(=O)N[C@@H](CCC(=O)NCCCC[C@H](NC(=O)[C@H](CO)NC(=O)[C@H](CC(=O)O)NC(=O)[C@H](CC(C)C)NC(=O)[C@H](Cc1ccc(O)cc1)NC(=O)[C@H](CCCCN)NC(=O)[C@H](CO)NC(=O)[C@H](Cc1ccc(O)cc1)NC(=O)[C@H](CC(=O)O)NC(=O)[C@H](CO)NC(=O)[C@@H](NC(=O)[C@H](Cc1ccccc1)NC(=O)[C@@H](NC(=O)CNC(=O)[C@H](CCC(N)=O)NC(=O)[C@H](CO)NC(=O)[C@@H](N)Cc1c[nH]cn1)[C@@H](C)O)[C@@H](C)O)C(=O)N[C@@H](CCCNC(=N)N)C(=O)N[C@@H](C)C(=O)N[C@@H](CCC(N)=O)C(=O)N[C@@H](CC(=O)O)C(=O)N[C@@H](Cc1ccccc1)C(=O)N[C@H](C(=O)N[C@@H](CCC(=O)O)C(=O)N[C@@H](Cc1c[nH]c2ccccc12)C(=O)N[C@@H](CC(C)C)C(=O)N[C@H](C(=O)N[C@@H](C)C(=O)NCC(=O)NCC(N)=O)C(C)C)C(C)C)C(=O)O` [g600] (H-HSQGTFTSDYSKYLDSK([γGlu-Palmitoyl])RAQDFVEWLVAGG-NH2; N-terminus assumed), the EC50 [1] was 0.0666 nM, the EC50 [2] was 124 nM and 82.8 nM and the EC50 [3] was 0.00547 nM.
`CCCCCCCCCCCCCCCC(=O)NCCCCCC(=O)NCCCC[C@H](NC(=O)[C@H](CO)NC(=O)[C@H](CC(=O)O)NC(=O)[C@H](CC(C)C)NC(=O)[C@H](Cc1ccc(O)cc1)NC(=O)[C@H](CCC(=O)O)NC(=O)[C@H](CO)NC(=O)[C@H](Cc1ccc(O)cc1)NC(=O)[C@H](CC(=O)O)NC(=O)[C@H](CO)NC(=O)[C@@H](NC(=O)[C@H](Cc1ccccc1)NC(=O)[C@@H](NC(=O)CNC(=O)[C@H](CCC(N)=O)NC(=O)[C@H](CO)NC(=O)[C@@H](N)Cc1c[nH]cn1)[C@@H](C)O)[C@@H](C)O)C(=O)N[C@@H](CCCNC(=N)N)C(=O)N[C@@H](C)C(=O)N[C@@H](CCC(N)=O)C(=O)N[C@@H](CC(=O)O)C(=O)N[C@@H](Cc1ccccc1)C(=O)N[C@H](C(=O)N[C@@H](CCC(N)=O)C(=O)N[C@@H](Cc1c[nH]c2ccccc12)C(=O)N[C@@H](CC(C)C)C(=O)N[C@@H](CCC(=O)O)C(=O)N[C@@H](CCCNC(=N)N)C(=O)NCC(=O)NCC(N)=O)C(C)C` [g614] (H-HSQGTFTSDYSEYLDSK([Ahx-Palmitoyl])RAQDFVQWLERGG-NH2; N-terminus assumed) was tested, and the EC50 [1] was 0.00931 nM, the EC50 [2] was 99.3 nM and the EC50 [3] was 0.00365 nM.
`CCCCCCCCCCCCCCCC(=O)N[C@@H](CCC(=O)NCCCC[C@H](NC(=O)[C@H](CO)NC(=O)[C@H](CC(=O)O)NC(=O)[C@H](CC(C)C)NC(=O)[C@H](Cc1ccc(O)cc1)NC(=O)[C@H](CCCCN)NC(=O)[C@H](CO)NC(=O)[C@H](Cc1ccc(O)cc1)NC(=O)[C@H](CC(=O)O)NC(=O)[C@H](CO)NC(=O)[C@@H](NC(=O)[C@H](Cc1ccccc1)NC(=O)[C@@H](NC(=O)CNC(=O)[C@H](CCC(=O)O)NC(=O)[C@H](CO)NC(=O)[C@@H](N)Cc1c[nH]cn1)[C@@H](C)O)[C@@H](C)O)C(=O)N[C@@H](CCCNC(=N)N)C(=O)N[C@@H](C)C(=O)N[C@@H](CCC(=O)O)C(=O)N[C@@H](CC(=O)O)C(=O)N[C@@H](Cc1ccccc1)C(=O)N[C@H](C(=O)N[C@@H](CCC(=O)O)C(=O)N[C@@H](Cc1c[nH]c2ccccc12)C(=O)N[C@@H](CC(C)C)C(=O)N[C@H](C(=O)N[C@@H](C)C(=O)NCC(=O)NCC(N)=O)C(C)C)C(C)C)C(=O)O` [g639] (H-HSEGTFTSDYSKYLDSK([γGlu-Palmitoyl])RAEDFVEWLVAGG-NH2; N-terminus assumed) gave an EC50 [1] of 0.244 nM, an EC50 [2] of 82.1 nM and an EC50 [3] of 82.1 nM.
For `CCCCCCCCCCCCCCCC(=O)N[C@@H](CCC(=O)NCCCC[C@H](NC(=O)[C@H](CO)NC(=O)[C@H](CC(=O)O)NC(=O)[C@H](CC(C)C)NC(=O)[C@H](Cc1ccc(O)cc1)NC(=O)[C@H](CCCCN)NC(=O)[C@H](CO)NC(=O)[C@H](Cc1ccc(O)cc1)NC(=O)[C@H](CC(=O)O)NC(=O)[C@H](CO)NC(=O)[C@@H](NC(=O)[C@H](Cc1ccccc1)NC(=O)[C@@H](NC(=O)CNC(=O)[C@H](CCC(N)=O)NC(=O)CNC(=O)[C@@H](N)Cc1c[nH]cn1)[C@@H](C)O)[C@@H](C)O)C(=O)N[C@@H](CCCNC(=N)N)C(=O)N[C@@H](C)C(=O)N[C@@H](CCCNC(=N)N)C(=O)N[C@@H](CC(=O)O)C(=O)N[C@@H](Cc1ccccc1)C(=O)N[C@H](C(=O)N[C@@H](CCC(=O)O)C(=O)N[C@@H](Cc1c[nH]c2ccccc12)C(=O)N[C@@H](CC(C)C)C(=O)N[C@H](C(=O)N[C@@H](C)C(=O)NCC(=O)NCC(N)=O)C(C)C)C(C)C)C(=O)O` [g660] (H-HGQGTFTSDYSKYLDSK([γGlu-Palmitoyl])RARDFVEWLVAGG-NH2; N-terminus assumed), the EC50 [1] was 1.06 nM, the EC50 [2] was 332 nM and the EC50 [3] was 1.52 nM.
